# Laboratory results from patent US10919896B2, “Preparation and uses of pyrimidinone derivatives” (Cancer Research Technology Limited, priority 2016, dated 2021).
# Counter-ions that a name gives are not always drawn.
# What was measured:
# [1] = tested on: Cdc7 (pS53MCM2 levels in SW48 cells); assay: Cdc7 Cell Pharmacodynamics Assay Method 3: pS53MCM2 levels in SW48 cells, 6 hours; type: cell-based; settings: Homo sapiens, SW48, 6 h, read-out: Biomarker Method 3 (pEC50) (converted)
# Excerpt: This protocol describes a method to investigate the inhibition of Cdc7 activity by measuring pS53MCM2 levels in cells, after treatment with compounds.
# • SW48 cells • RPMI 1640 (Sigma, R5886) • 10% FCS (Sera Laboratories International Ltd, EU000F Batch:108005) • 100× L-Glutamine (Invitrogen, 25030-024) • D-Glucose Solution (10%) (Sigma, G8644) • HEPES Buffer Solution (Sigma, 83264) • Sodium Pyruvate (Sigma, S8636) • PBS (Fisger, BP399-4) • Trypsin/EDTA (Invitrogen 25300-054) • 2% BSA in PBS • Cell Extraction Buffer (Invitrogen FNN0011) • Protease inhibitor cocktail (Sigma P-2714) • PMSF 0.3M stock in DMSO (Sigma P7626) • Antibody-rabbit pMCM2 Ser53 (Bethyl #A300-756A) • Antibody-goat MCM2 (Bethyl #A300-122A) • Antibody-goat Anti Rabbit IgG HRP (Perbio Science UK Ltd 31462) • SuperSignal ELISA Pico Chemiluminescent Substrate (Perbio Science UK Ltd 37070) Method • Plate 30,000 SW48 cells per well in standard TC treated 96 well plate in 100 μL complete RPMI 1640 medium. • Allow cells to settle overnight in incubator set at 37° C. and 5% CO2. • Cell treatment: prepare a 384 well plate containing 80 μl PBS/well. The PBS should be at room temperature—to be referred to as intermediate plate. Transfer 2 μL of compound from mother plate to intermediate (daughter plate) 1:40 dilution, then 5 μL intermediate to cell (daughter) plate. • Once all cells are treated place the cells back to the incubator and incubate for 6 hours. • Dilute the capture antibody (total MCM2#A300-122A) 1 in 250 in the required volume of PBS (5 mL per assay plate, plus 5 mL for dead volume) and add 50 μL to each well of a Hybond plate. Seal the plate and incubate at room temperature for a minimum of 2 hours. • Defrost aliquot of Invitrogen Cell Extraction Buffer (FNN0011) on ice and supplement with appropriate volume of both Sigma protease inhibitor cocktail (P-2714) and PMSF (final conc 1 mM from a 1 M stock in DMSO). • After the 6 hour cell treatment time, tap out the media from the assay plates and place them in the −80° C. freezer for at least 5 minutes. • Remove plates from freezer and add 20 μL of ice cold complete lysis buffer, with the multidrop. Incubate cells for 30 minutes at 4° C. • Add 80 μL per well 2% BSA. • Flick out the remaining liquid from the capture plate and transfer 80 μL from the lysis plate to the same wells in the capture/ELISA plate, using the Biomek. Cover with plate seal and incubate plates overnight at 4° C. • Wash plates with PBS, remove any residual remaining liquid and add 50 μL per well of pMCM2 Ser53 antibody (#A300-756A) diluted 1 in 100 in 2% BSA. Cover plate and incubate at room temperature for 2 hours with gentle shaking. • Wash plates with PBS, remove any residual remaining liquid and Incubate with 50 μL goat anti rabbit antibody (1 in 800 dilution in 2% BSA), for 1 hour at room temperature. • Wash plates with PBS, remove any residual remaining liquid and add 50 μL mixed SuperSignal Pico substrate. • Incubate each plate for 5 minutes at room temperature shielding the plates from direct light (with a cover plate). Read plates with the luminescent detection.
# [2] = molecular target: Cdc7/ASK (Homo sapiens, UniProt O00311); assay: Cdc7 Biochemical Assay Method 4: off-chip mobility shift assay (Carna Biosciences); design: purchased Carna Biosciences; host or cells: baculovirus expression system; settings: off-chip MSA, MCM2 peptide, 5 hours; read-out: Biochemical Method 4 (pIC50) (converted)
# Cdc7/ASK, sequence (O00311 whole entry): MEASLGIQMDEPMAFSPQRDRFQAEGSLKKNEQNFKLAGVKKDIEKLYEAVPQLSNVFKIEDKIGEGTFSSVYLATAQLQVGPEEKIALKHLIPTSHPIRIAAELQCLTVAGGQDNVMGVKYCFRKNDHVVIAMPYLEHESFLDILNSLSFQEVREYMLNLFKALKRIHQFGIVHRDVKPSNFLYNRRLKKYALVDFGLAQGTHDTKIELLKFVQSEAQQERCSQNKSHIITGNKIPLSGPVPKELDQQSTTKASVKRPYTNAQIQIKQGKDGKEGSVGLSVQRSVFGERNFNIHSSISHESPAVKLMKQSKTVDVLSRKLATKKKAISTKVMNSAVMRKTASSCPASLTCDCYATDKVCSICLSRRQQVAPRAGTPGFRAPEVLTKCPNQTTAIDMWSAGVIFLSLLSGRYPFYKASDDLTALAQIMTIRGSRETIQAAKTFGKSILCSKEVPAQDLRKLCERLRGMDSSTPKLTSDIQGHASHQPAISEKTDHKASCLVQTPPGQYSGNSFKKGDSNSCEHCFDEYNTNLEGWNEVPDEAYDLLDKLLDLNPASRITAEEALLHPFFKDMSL
# Cdc7/ASK, sequence (Q9UBU7 whole entry partner): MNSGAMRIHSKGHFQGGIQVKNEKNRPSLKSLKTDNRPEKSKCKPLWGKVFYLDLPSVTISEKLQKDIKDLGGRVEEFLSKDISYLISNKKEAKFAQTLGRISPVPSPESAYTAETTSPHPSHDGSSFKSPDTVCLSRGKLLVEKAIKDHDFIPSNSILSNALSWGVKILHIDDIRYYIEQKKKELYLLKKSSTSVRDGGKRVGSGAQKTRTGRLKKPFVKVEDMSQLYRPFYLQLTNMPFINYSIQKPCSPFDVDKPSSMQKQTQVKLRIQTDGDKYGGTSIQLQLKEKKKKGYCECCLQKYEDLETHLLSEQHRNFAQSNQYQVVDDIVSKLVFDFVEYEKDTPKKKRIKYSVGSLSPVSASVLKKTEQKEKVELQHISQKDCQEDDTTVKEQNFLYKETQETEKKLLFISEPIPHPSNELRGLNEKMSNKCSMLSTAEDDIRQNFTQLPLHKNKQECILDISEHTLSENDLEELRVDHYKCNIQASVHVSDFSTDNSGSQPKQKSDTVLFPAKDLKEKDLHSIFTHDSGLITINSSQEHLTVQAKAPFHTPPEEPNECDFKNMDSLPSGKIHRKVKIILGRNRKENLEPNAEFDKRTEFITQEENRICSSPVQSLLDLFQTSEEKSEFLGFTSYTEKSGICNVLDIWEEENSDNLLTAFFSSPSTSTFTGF
# Description: This protocol describes a method for assaying Cdc7/ASK for activity. The assay is an off-chip mobility shift assay (MSA) run at Carna Biosciences.
# 1. Preparation of Test Compound Solution.
# The test compound was dissolved in and diluted with dimethylsulfoxide (DMSO) to achieve 100-fold higher concentration which was specified by the sponsor. Then the solution was further 25-fold diluted with assay buffer to make the final test compound solution. Reference compounds for assay control were prepared similarly.
# Cdc7/ASK: Full-length human Cdc7 [1-574(end) amino acids of accession number NP_003494.1] was co-expressed as N-terminal GST-fusion protein (92 kDa) with Dbf4(ASK) [1-674(end) amino acids of accession number NP_006707.1] using baculovirus expression system. GST-Cdc7 was purified by using glutathione sepharose chromatography.
# 3. Assay Reagents and Procedures
# Off-chip Mobility Shift Assay (MSA)
# 1) The […] of ×2 kinase solution were prepared with assay buffer (20 mM HEPES, 0.01% Triton X-100, 1 mM DTT, pH 7.5) and mixed and incubated in a well of polypropylene 384 well microplate for 5 hours at room temperature. 2) […] of Termination Buffer (QuickScout Screening Assist MSA; Carna Biosciences) was added to the well. 3) The reaction mixture was applied to LabChip system (Perkin Elmer), and the product and substrate peptide peaks were separated and quantitated. 4) The kinase reaction was evaluated by the product ratio calculated from peak heights of product (P) and substrate (S) peptides (P/(P+S)).
# Reaction time is 5 hours.
# The readout value of reaction control (complete reaction mixture) was set as a 0% inhibition, and the readout value of background (Enzyme(−)) was set as a 100% inhibition, then the percent inhibition of each test solution was calculated.
# IC50 value was calculated from concentration vs. % Inhibition curves by fitting to a four parameter logistic curve.
EC50 [1] [µM],IC50 [2] [µM],Compound
0.589,,"O=c1[nH]c(-c2ccnc(F)c2)nc(N2CCCC(F)(F)C2)c1Cl [Compound 90, 5-chloro-4-(3,3-difluoro-1-piperidyl)-2-(2-fluoro-4-pyridyl)-1H-pyrimidin-6-one]"
4.07,,O=c1[nH]c(-c2ccncc2)nc(N2CCN[C@H](C(F)(F)F)C2)c1Cl [Compound 139]
0.339,,O=c1[nH]c(-c2ccncc2)nc(N2CCN[C@@H](C(F)(F)F)C2)c1Cl [Compound 180]
0.145,0.00372,"O=c1[nH]c(-c2ccnc(F)c2)nc(N2CCNCC(F)(F)C2)c1Cl [Compound 312, 5-chloro-4-(6,6-difluoro-1,4-diazepan-1-yl)-2-(2-fluoro-4-pyridyl)-1H-pyrimidin-6-one hydrochloride]"
0.0794,0.00309,C[C@@H]1CNCCN1c1nc(-c2ccnc(F)c2)[nH]c(=O)c1Cl [Compound 323]
